Organism: Rattus norvegicus
Assay: DrugMatrix - Regimen: Daily Repeat
Assay type: toxicity, organism-based, Sprague-Dawley
Design: regimen Daily Repeat, gender Male, age 6-8 weeks
Conditions: in vivo, po, route oral GAVAGE, vehicle .5 % CMC; for BASOPHIL / EOSINOPHIL / ERYTHROCYTE COUNT / HEMATOCRIT / HEMOGLOBIN / LEUKOCYTE COUNT / LYMPHOCYTE / MEAN CORPUSCULAR HEMOGLOBIN / MEAN CORPUSCULAR HEMOGLOBIN CONCENTRATION / MEAN CORPUSCULAR VOLUME / MONOCYTE / NEUTROPHIL / PLATELET COUNT: tissue Blood; for ALANINE AMINOTRANSFERASE / ALBUMIN / ALKALINE PHOSPHATASE / ASPARTATE AMINOTRANSFERASE / BLOOD UREA NITROGEN / CHLORIDE / CHOLESTEROL / CREATINE PHOSPHOKINASE / CREATININE / GLUCOSE / PHOSPHORUS / POTASSIUM / SODIUM / TOTAL BILIRUBIN / TOTAL PROTEIN: tissue Plasma
[1] = 40 mg/kg, 72 h, dose level Low, time 3 day
[2] = 40 mg/kg, 120 h, dose level Low, time 5 day
[3] = 99 mg/kg, 72 h, dose level High, time 3 day
[4] = 99 mg/kg, 120 h, dose level High, time 5 day

For `CO[C@H]1/C=C/O[C@@]2(C)Oc3c(C)c(O)c4c(O)c(c(/C=N/N5CCN(C)CC5)c(O)c4c3C2=O)NC(=O)/C(C)=C\C=C\[C@H](C)[C@H](O)[C@@H](C)[C@@H](O)[C@@H](C)[C@H](OC(C)=O)[C@@H]1C` [RIFAMPIN], the BASOPHIL [1] was 0%, the EOSINOPHIL [1] was 0% and the “ERYTHROCYTE COUNT” value [1] was 6.01 x10E6/uL. The HEMATOCRIT [1] was 36.73%, the HEMOGLOBIN [1] was 14.33 G/DL and the “LEUKOCYTE COUNT” value [1] was 9.07 x10E3/uL. For the same molecule, the LYMPHOCYTE [1] was 88%, the “MEAN CORPUSCULAR HEMOGLOBIN” value [1] was 23.83 pg and the “MEAN CORPUSCULAR HEMOGLOBIN CONCENTRATION” value [1] was 39.03 G/DL. The “MEAN CORPUSCULAR VOLUME” value [1] was 61.1 fL, the MONOCYTE [1] was 2.33% and the NEUTROPHIL [1] was 9.67%. For the same molecule, the “PLATELET COUNT” value [1] was 1111.33 x10E3/uL, the “ALANINE AMINOTRANSFERASE” value [1] was 36 u/L and the ALBUMIN [1] was 3.6 G/DL. The “ALKALINE PHOSPHATASE” value [1] was 274 u/L, the “ASPARTATE AMINOTRANSFERASE” value [1] was 60 u/L and the “BLOOD UREA NITROGEN” value [1] was 9 mg/dL. For the same molecule, the CHLORIDE [1] was 108 MEQ/L, the CHOLESTEROL [1] was 63.33 mg/dL and the “CREATINE PHOSPHOKINASE” value [1] was 115.33 u/L. It also gave a CREATININE [1] of 0.43 mg/dL, a GLUCOSE [1] of 170.33 mg/dL and a PHOSPHORUS [1] of 11.3 mg/dL. For the same molecule, the POTASSIUM [1] was 6.6 MEQ/L, the SODIUM [1] was 152.67 MEQ/L and the “TOTAL BILIRUBIN” value [1] was 0.33 mg/dL. For the same molecule, the “TOTAL PROTEIN” value [1] was 5.73 G/DL, the BASOPHIL [2] was 0% and the EOSINOPHIL [2] was 0%. For the same molecule, the “ERYTHROCYTE COUNT” value [2] was 6.22 x10E6/uL, the HEMATOCRIT [2] was 36.5% and the HEMOGLOBIN [2] was 14.57 G/DL. For the same molecule, the “LEUKOCYTE COUNT” value [2] was 14.23 x10E3/uL, the LYMPHOCYTE [2] was 89.33% and the “MEAN CORPUSCULAR HEMOGLOBIN” value [2] was 23.47 pg. For the same molecule, the “MEAN CORPUSCULAR HEMOGLOBIN CONCENTRATION” value [2] was 39.93 G/DL, the “MEAN CORPUSCULAR VOLUME” value [2] was 58.8 fL and the MONOCYTE [2] was 2.67%. For the same molecule, the NEUTROPHIL [2] was 8%, the “PLATELET COUNT” value [2] was 1082.67 x10E3/uL and the “ALANINE AMINOTRANSFERASE” value [2] was 42.33 u/L. For the same molecule, the ALBUMIN [2] was 3.7 G/DL, the “ALKALINE PHOSPHATASE” value [2] was 325 u/L and the “ASPARTATE AMINOTRANSFERASE” value [2] was 62.67 u/L. For the same molecule, the “BLOOD UREA NITROGEN” value [2] was 13.67 mg/dL, the CHLORIDE [2] was 107.33 MEQ/L and the CHOLESTEROL [2] was 78.33 mg/dL. The “CREATINE PHOSPHOKINASE” value [2] was 142 u/L, the CREATININE [2] was 0.57 mg/dL and the GLUCOSE [2] was 180.33 mg/dL. It also gave a PHOSPHORUS [2] of 10.97 mg/dL, a POTASSIUM [2] of 6.63 MEQ/L and an SODIUM [2] of 150.33 MEQ/L. The “TOTAL BILIRUBIN” value [2] was 0.3 mg/dL, the “TOTAL PROTEIN” value [2] was 6.03 G/DL and the BASOPHIL [3] was 0%. The EOSINOPHIL [3] was 0.33%, the “ERYTHROCYTE COUNT” value [3] was 5.7 x10E6/uL and the HEMATOCRIT [3] was 35.03%. The HEMOGLOBIN [3] was 13.93 G/DL, the “LEUKOCYTE COUNT” value [3] was 12.7 x10E3/uL and the LYMPHOCYTE [3] was 89%. For the same molecule, the “MEAN CORPUSCULAR HEMOGLOBIN” value [3] was 24.47 pg, the “MEAN CORPUSCULAR HEMOGLOBIN CONCENTRATION” value [3] was 39.77 G/DL and the “MEAN CORPUSCULAR VOLUME” value [3] was 61.5 fL. For the same molecule, the MONOCYTE [3] was 2%, the NEUTROPHIL [3] was 8.67% and the “PLATELET COUNT” value [3] was 1047.33 x10E3/uL. For the same molecule, the “ALANINE AMINOTRANSFERASE” value [3] was 41 u/L, the ALBUMIN [3] was 3.8 G/DL and the “ALKALINE PHOSPHATASE” value [3] was 360.33 u/L. For the same molecule, the “ASPARTATE AMINOTRANSFERASE” value [3] was 60 u/L, the “BLOOD UREA NITROGEN” value [3] was 10.67 mg/dL and the CHLORIDE [3] was 106.67 MEQ/L. For the same molecule, the CHOLESTEROL [3] was 93.67 mg/dL, the “CREATINE PHOSPHOKINASE” value [3] was 139 u/L and the CREATININE [3] was 0.43 mg/dL. For the same molecule, the GLUCOSE [3] was 166.33 mg/dL, the PHOSPHORUS [3] was 11.6 mg/dL and the POTASSIUM [3] was 6.4 MEQ/L. For the same molecule, the SODIUM [3] was 153 MEQ/L, the “TOTAL BILIRUBIN” value [3] was 0.3 mg/dL and the “TOTAL PROTEIN” value [3] was 6.1 G/DL. For the same molecule, the BASOPHIL [4] was 0%, the EOSINOPHIL [4] was 0.33% and the “ERYTHROCYTE COUNT” value [4] was 5.79 x10E6/uL. The HEMATOCRIT [4] was 34.87%, the HEMOGLOBIN [4] was 13.73 G/DL and the “LEUKOCYTE COUNT” value [4] was 17.13 x10E3/uL. For the same molecule, the LYMPHOCYTE [4] was 85%, the “MEAN CORPUSCULAR HEMOGLOBIN” value [4] was 23.73 pg and the “MEAN CORPUSCULAR HEMOGLOBIN CONCENTRATION” value [4] was 39.4 G/DL. The “MEAN CORPUSCULAR VOLUME” value [4] was 60.23 fL, the MONOCYTE [4] was 2% and the NEUTROPHIL [4] was 12.67%. For the same molecule, the “PLATELET COUNT” value [4] was 1010.67 x10E3/uL, the “ALANINE AMINOTRANSFERASE” value [4] was 46 u/L and the ALBUMIN [4] was 3.6 G/DL. The “ALKALINE PHOSPHATASE” value [4] was 384.33 u/L, the “ASPARTATE AMINOTRANSFERASE” value [4] was 64.33 u/L and the “BLOOD UREA NITROGEN” value [4] was 11.33 mg/dL. The CHLORIDE [4] was 108.33 MEQ/L, the CHOLESTEROL [4] was 75 mg/dL and the “CREATINE PHOSPHOKINASE” value [4] was 143 u/L. It also gave a CREATININE [4] of 0.5 mg/dL, a GLUCOSE [4] of 177.67 mg/dL and a PHOSPHORUS [4] of 11.1 mg/dL. The POTASSIUM [4] was 6.3 MEQ/L, the SODIUM [4] was 149.33 MEQ/L and the “TOTAL BILIRUBIN” value [4] was 0.37 mg/dL. For the same molecule, the “TOTAL PROTEIN” value [4] was 5.67 G/DL.

— ChEMBL document CHEMBL3885881, “DrugMatrix”
